# Results from PMC5341770 (Nature microbiology, 2017).
# Molecular target: T1, WarA (PA4379) (Pseudomonas aeruginosa, UniProt Q9HW23)
# T1 sequence (Q9HW23 1-227): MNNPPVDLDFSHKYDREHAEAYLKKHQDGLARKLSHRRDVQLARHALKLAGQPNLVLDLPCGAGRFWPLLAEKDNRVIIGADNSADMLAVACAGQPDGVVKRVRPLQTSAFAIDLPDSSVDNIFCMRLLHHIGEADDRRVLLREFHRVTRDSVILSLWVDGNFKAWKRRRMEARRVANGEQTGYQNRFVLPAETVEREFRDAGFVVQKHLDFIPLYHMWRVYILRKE
# Details: methyl acceptor: LPS from a warA deletion mutant
smiles,measurement,value
C[S+](CC[C@H](N)C(=O)O)C[C@H]1O[C@@H](n2cnc3c(N)ncnc32)[C@H](O)[C@@H]1O (stereo partly drawn) [S-adenosyl-L-methionine],fluorescent methyltransferase activity kit,using S-adenosyl-L-methionine as the methyl group donor and measuring activity in relative fluorescent units
